Source: US20240116923A1, “USE OF INDOLE, 6- AND 7-AZAINDOLE DERIVATIVES AS INHIBITORS OF FERROPTOSIS REGULATED CELL DEATH” (Seabelife, priority 2021, published 2024)
Like-named read-outs stand apart in the source and are kept apart here.

Tests used:
[1] = system: mouse hippocampal neuronal cell line HT22; assay: Neurotoxicity and excitotoxicity assay, HT22 cells + glutamate, erastin or RSL3, MTS cell viability; format: cell-based; conditions: Mus musculus
Procedure: The excitotoxicity model used was the mouse hippocampal neuronal HT22 cells treated with glutamate [Dixon et al., Cell, 2012, 149(5), 1060-1072]. Ferroptosis and oxidative stress are both associated in this glutamate-induced cell death [Chu et al., Neural Regen. Res., 2020, 15(3), 528-536]. Phenotypic screening was also carried out with additional cell death inducers, erastin and RSL3 ((1S,3R)-Ras-selective lethal), in HT22 and SH-SY5Y (human neuroblastoma cells). Erastin and RSL3 are well described molecules, used as chemical tools for the study of ferroptosis regulation and neuronal pathologies [Lewerenz et al., Front. Neurosci., 2018, 12: 214; Reichert et al., Int. J. Mol. Sci., 2020, 21, 8765].
Mouse hippocampal neuronal cell line (HT22, ATCC) and human neuroblastoma cell line (SH-SY5Y, ATCC) were grown in Dulbecco's Modified Eagle Medium (DMEM, Gibco) supplemented with 10% fetal bovine serum (FBS, Gibco) at 37° C. under 5% CO2 atmosphere. Neurotoxicity was induced by erastin or RSL3 and excitotoxicity was induced by glutamate. Cells were seeded in 96-well plates at 5,000 and 10,000 cells/well for HT22 and SH-SY5Y cell lines, respectively. Cells were treated with 0.5-1 μM Erastin (HT22 cells) or 10 μM Erastin (SH-SY5Y cells) or 5-10 mM glutamate (HT22 cells) or 0.5 μM RSL3 (HT22 cells) or 5 μM RSL3 (SH-SY5Y cells) for 24 h in presence of increasing concentrations of inhibitors. Cells treated with DMSO only were used as controls. Cell viability was assessed by MTS assay (CellTiter 96 AQueous One Solution Cell Proliferation assay, Promega).
In FIGS. 1, 2A and 2B, an inhibitor was added to HT22 (FIG. 1: compound 6) or SH-SY5Y (FIG. 2A: compound 6; FIG. 2B: compound 25) cells in the presence or not of cell death inducers (erastin, glutamate or RSL3). […] EC50 values for compounds 1-28 were calculated from dose-response curves using Graphpad Prism software.

[2] = system: Abca4−/−Rdh8−/− mice; assay: In vivo model of Stargardt's disease and AMD, blue light damage, ERG and OCT
Procedure: As described in Parmar et al., Invest Ophthalmol Vis Sci., 2016, 57(7), mice lacking ATP-binding cassette transporter 4 (ABCA4) and retinol dehydrogenase 8 (RDH8) mimic features of human Stargardt's disease and age-related macular degeneration. Intense light exposure can accelerate retinal degeneration in Abca4^−/−Rdh8^−/− mice.
Blue light damage (BLD) experiments are performed on 7-week-old Abca4−/−Rdh8−/− mice. The animals were adapted to low light levels (4000 lux, 30 minutes). Six days after BLD, an optical coherence tomography (OCT) examination of each eye is performed, which provides a “snapshot” of the state of the retinal cell layers in living mice. OCT is based on the use of a low coherence interferometer. This imaging technique allows in vivo cross-sectional images of tissues to be taken with a resolution of a few microns. It is performed under light gas anaesthesia (5% isoflurane at induction then 2% during maintenance) and is non-invasive. The pupils of the mice are dilated with 0.5% Midriaticum. A representative image of each eye was extracted and included in separate report documents (4 OCT attachments). The following day, measurements of the electrical activity of the retina were made by measuring scotopic and photopic electroretinograms (ERG). The scotopic ERG is performed after a night in the dark in order to measure the electrical response of the rods which represent 97% of the photoreceptors in the mouse. At higher intensities, the cones also respond. This is followed by a photopic ERG which records the response of the cones only. Three measurements corresponding to the activity of 1) rod and cone photoreceptors, 2) inner retinal bipolar cells and 3) cones only, are obtained. The eyes are then harvested and prepared for subsequent histological analysis. In the IP experiments, one eye is dissected and the retina and RPE are frozen separately. These tissues can be used for further measurements.
Compound 1 in powder form is taken up in DMSO in order to obtain a solution at 20 mM. These solutions are stored at −20° C. and are thawed extemporaneously to prepare a solution diluted 89 times in PBS. These solutions give a final concentration in the eye of around 50 μM for compound 1, and 0.25% DMSO. A vehicle is prepared from pure DMSO to achieve a final 0.25% in the vitreous. Mice are lightly anaesthetised with isoflurane during the IVT procedure. A volume of 1.5 μL is injected into the vitreous of the left eye.
In order to measure the thickness of the retina and the photoreceptor layer, image processing was performed using Image J software. The thickness of the whole retina is measured between the outer segment layer and the ganglion cell layer. The thickness of the photoreceptor layer is measured between the outer plexiform layer and the outer segment layer. On average 6 measurements are made along the length of an OCT image representing an upper or lower half-retina. In order to prepare plates of sections of the eyes from the SBL2 IVT experiment, one eye corresponding to each condition was cut on the cryostat, i.e. one NINI eye and both eyes of an SBL2-injected mouse (I and NI).
The solutions are prepared extemporaneously from water-soluble lyophilisates of compound 7 (SBL1)-cyclodextrin (final CD concentration, 15%) and the corresponding placebos. The solutions are prepared by injecting a predefined volume of 0.9% NaCl into the vial. The vial is then vortexed and the solution is filtered into a new sterile tube. Two groups of 3 mice are used for these tests. The group received either SBL1 (20 mg/kg) (n=3) or placebo-SBL1 (n=3). The volume to be injected is calculated according to the weight of the mice and corresponds to 10 ml/kg. Mice were injected 3 and 1 h before and 1 and 3 h after the start of the BLD.

| SMILES | EC50 ([1]; HT-22, HT22 cells, 0.5 μM RSL3, 24 h, MTS, read-out: EC50 HT22 RSL3) [µM] | EC50 ([1]; HT-22, HT22 cells, 0.5-1 μM Erastin, 24 h, MTS, read-out: EC50 HT22 Erastin) [µM] | EC50 ([1]; HT-22, HT22 cells, 5-10 mM glutamate, 24 h, MTS, read-out: EC50 HT22 Glutamate) [µM] | electrical response of retinal cells (scotopic and photopic ERG) compared to placebo ([2]; intraperitoneal 20 mg/kg, 3 and 1 h before and 1 and 3 h after start of BLD, cyclodextrin lyophilisate) | scotopic B wave at higher intensities (inner retina response) ([2]; intraperitoneal 20 mg/kg, FIG. 35) | scotopic ERG response to the 30 cd·s/m^2 flash intensity (mixed rod-cone response) ([2]; intraperitoneal 20 mg/kg, FIGS. 34 & 35) | whole retinal thickness from OCT, injected vs non-injected mice ([2]; intraperitoneal treatment, FIG. 36) | EC50 ([1]; HT-22, 24 h, read-out: EC50 HT22 Erastin) [µM] | EC50 ([1]; HT-22, 24 h, read-out: EC50 HT22 Glutamate) [µM] | EC50 ([1]; HT-22, 24 h, read-out: EC50 HT22 RSL3) [µM] | electrical response of retinal cells (scotopic and photopic ERG) ([2]; intravitreal injection, 50 μM in the eye, after blue light damage) | thickness of the retinas from OCT, injected versus non-injected eyes ([2]; intravitreal treatment, FIG. 33) | photopic ERG, injected vs non-injected eyes ([2]; intravitreal, 50 μM, 30 cd·s/m2, FIG. 30) | scotopic ERG B wave, injected vs uninjected eyes ([2]; intravitreal, 50 μM, p=0.048 vs VEH NI at 30 cd·s/m2, FIG. 32) | scotopic ERG A wave, injected eye vs vehicle-injected eye ([2]; intravitreal, 50 μM, significant (P=0.0206) vs VEH NI at 10 cd·s/m2, FIG. 31) |
| --- | --- | --- | --- | --- | --- | --- | --- | --- | --- | --- | --- | --- | --- | --- | --- |
| Oc1ccc(-c2cc3cccnc3[nH]2)cc1 [Compound 7, 4-(1H-pyrrolo[2,3-b]pyridin-2-yl)phenol] | 14.6 | > 25 | > 25 | slightly protect the electrical response of retinal cells | protective trend | protective trend | a difference between the whole retinas of injected and non-injected mice | – | – | – | – | – | – | – | – |
| Oc1ccc(-c2cc3ccccc3[nH]2)cc1 [Compound 1, 4-(1H-indol-2-yl)phenol] | – | – | – | – | – | – | – | 2.9 | 2.55 | 3.27 | appears to preserve the electrical response of retinal cells | significant difference | partially preserved | appears preserved | a clear difference is observed |
